In the supplement of paper PMC10307832:

Tests used:
Experiment in all cases: relative viability (nuclei count vs DMSO), 5 days (fraction); higher = more cells survive
201T = test system: 201T
Procedure, shortened: (§1)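 Dosing by pin tool came one day after lung cancer cell lines were seeded in 1536-well plates, using either one drug or a fixed anchor-drug dose plus five library-drug doses (not always all listed) in √10 steps. After 5 days, nuclei were counted on 4× images. Relative viability is treated-well nuclei count divided by vehicle-well nuclei count, and values are medians of duplicate plates.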

CAL-12T = test system: CAL-12T
Procedure, shortened: as §1

ChaGo-K-1 = test system: ChaGo-K-1
Procedure, shortened: as §1

EMC-BAC-2 = test system: EMC-BAC-2
Procedure, shortened: as §1

H3255 = test system: H3255
Procedure, shortened: as §1

HOP-62 = test system: HOP-62
Procedure, shortened: as §1

LXF-289 = test system: LXF-289
Procedure, shortened: as §1

NCI-H1437 = test system: NCI-H1437
Procedure, shortened: as §1

NCI-H1651 = test system: NCI-H1651
Procedure, shortened: as §1

NCI-H1734 = test system: NCI-H1734
Procedure, shortened: as §1

NCI-H1755 = test system: NCI-H1755
Procedure, shortened: as §1

NCI-H1975 = test system: NCI-H1975
Procedure, shortened: as §1

NCI-H2023 = test system: NCI-H2023
Procedure, shortened: as §1

NCI-H2085 = test system: NCI-H2085
Procedure, shortened: as §1

NCI-H2342 = test system: NCI-H2342
Procedure, shortened: as §1

NCI-H2347 = test system: NCI-H2347
Procedure, shortened: as §1

NCI-H23 = test system: NCI-H23
Procedure, shortened: as §1

NCI-H2405 = test system: NCI-H2405
Procedure, shortened: as §1

NCI-H441 = test system: NCI-H441
Procedure, shortened: as §1

NCI-H460 = test system: NCI-H460
Procedure, shortened: as §1

NCI-H838 = test system: NCI-H838
Procedure, shortened: as §1

SW 900 = test system: SW 900
Procedure, shortened: as §1

UMC-11 = test system: UMC-11
Procedure, shortened: as §1

Oc1nc(-c2ccc(C(F)(F)F)cc2)nc2c1CSCC2 [XAV939] + O=C(c1cc(Cc2n[nH]c(=O)c3ccccc23)ccc1F)N1CCN(C(=O)C2CC2)CC1 [Olaparib] (partner 8 µM)
relative viability (201T; first compound 0.08 µM): 0.855
relative viability (201T; first compound 0.253 µM): 0.814
relative viability (201T; first compound 0.8 µM): 0.687
relative viability (201T; first compound 2.53 µM): 0.745
relative viability (CAL-12T; first compound 0.08 µM): 0.788
relative viability (CAL-12T; first compound 0.253 µM): 0.699
relative viability (CAL-12T; first compound 0.8 µM): 0.689
relative viability (CAL-12T; first compound 2.53 µM): 0.654
relative viability (ChaGo-K-1; first compound 0.08 µM): 0.409
relative viability (ChaGo-K-1; first compound 0.253 µM): 0.392
relative viability (ChaGo-K-1; first compound 0.8 µM): 0.384
relative viability (ChaGo-K-1; first compound 2.53 µM): 0.376
relative viability (EMC-BAC-2; first compound 0.08 µM): 0.533
relative viability (EMC-BAC-2; first compound 0.253 µM): 0.477
relative viability (EMC-BAC-2; first compound 0.8 µM): 0.478
relative viability (EMC-BAC-2; first compound 2.53 µM): 0.301
relative viability (H3255; first compound 0.08 µM): 0.598
relative viability (H3255; first compound 0.253 µM): 0.563
relative viability (H3255; first compound 0.8 µM): 0.553
relative viability (H3255; first compound 2.53 µM): 0.51
relative viability (HOP-62; first compound 0.08 µM): 0.369
relative viability (HOP-62; first compound 0.253 µM): 0.351
relative viability (HOP-62; first compound 0.8 µM): 0.502
relative viability (HOP-62; first compound 2.53 µM): 0.371
relative viability (LXF-289; first compound 0.08 µM): 1.13
relative viability (LXF-289; first compound 0.253 µM): 1.05
relative viability (LXF-289; first compound 0.8 µM): 1.08
relative viability (LXF-289; first compound 2.53 µM): 1.07
relative viability (NCI-H1437; first compound 0.08 µM): 0.631
relative viability (NCI-H1437; first compound 0.253 µM): 0.593
relative viability (NCI-H1437; first compound 0.8 µM): 0.558
relative viability (NCI-H1437; first compound 2.53 µM): 0.355
relative viability (NCI-H1651; first compound 0.08 µM): 0.181
relative viability (NCI-H1651; first compound 0.253 µM): 0.19
relative viability (NCI-H1651; first compound 0.8 µM): 0.205
relative viability (NCI-H1651; first compound 2.53 µM): 0.196
relative viability (NCI-H1734; first compound 0.08 µM): 0.655
relative viability (NCI-H1734; first compound 0.253 µM): 0.538
relative viability (NCI-H1734; first compound 0.8 µM): 0.673
relative viability (NCI-H1734; first compound 2.53 µM): 0.602
relative viability (NCI-H1755; first compound 0.08 µM): 0.798
relative viability (NCI-H1755; first compound 0.253 µM): 0.767
relative viability (NCI-H1755; first compound 0.8 µM): 0.816
relative viability (NCI-H1755; first compound 2.53 µM): 0.733
relative viability (NCI-H1975; first compound 0.08 µM): 0.712
relative viability (NCI-H1975; first compound 0.253 µM): 0.601
relative viability (NCI-H1975; first compound 0.8 µM): 0.622
relative viability (NCI-H1975; first compound 2.53 µM): 0.505
relative viability (NCI-H2023; first compound 0.08 µM): 0.531
relative viability (NCI-H2023; first compound 0.253 µM): 0.38
relative viability (NCI-H2023; first compound 0.8 µM): 0.463
relative viability (NCI-H2023; first compound 2.53 µM): 0.402
relative viability (NCI-H2085; first compound 0.08 µM): 0.782
relative viability (NCI-H2085; first compound 0.253 µM): 0.719
relative viability (NCI-H2085; first compound 0.8 µM): 0.742
relative viability (NCI-H2085; first compound 2.53 µM): 0.761
relative viability (NCI-H2342; first compound 0.08 µM): 0.47
relative viability (NCI-H2342; first compound 0.253 µM): 0.431
relative viability (NCI-H2342; first compound 0.8 µM): 0.376
relative viability (NCI-H2342; first compound 2.53 µM): 0.288
relative viability (NCI-H2347; first compound 0.08 µM): 0.667
relative viability (NCI-H2347; first compound 0.253 µM): 0.543
relative viability (NCI-H2347; first compound 0.8 µM): 0.569
relative viability (NCI-H2347; first compound 2.53 µM): 0.517
relative viability (NCI-H23; first compound 0.08 µM): 0.323
relative viability (NCI-H23; first compound 0.8 µM): 0.278
relative viability (NCI-H23; first compound 2.53 µM): 0.264
relative viability (NCI-H2405; first compound 0.08 µM): 0.974
relative viability (NCI-H2405; first compound 0.253 µM): 0.824
relative viability (NCI-H2405; first compound 0.8 µM): 0.797
relative viability (NCI-H2405; first compound 2.53 µM): 0.766
relative viability (NCI-H441; first compound 0.08 µM): 0.68
relative viability (NCI-H441; first compound 0.253 µM): 0.448
relative viability (NCI-H441; first compound 0.8 µM): 0.613
relative viability (NCI-H441; first compound 2.53 µM): 0.521
relative viability (NCI-H460; first compound 0.08 µM): 0.58
relative viability (NCI-H460; first compound 0.253 µM): 0.35
relative viability (NCI-H460; first compound 0.8 µM): 0.395
relative viability (NCI-H460; first compound 2.53 µM): 0.271
relative viability (NCI-H838; first compound 0.08 µM): 0.755
relative viability (NCI-H838; first compound 0.253 µM): 0.662
relative viability (NCI-H838; first compound 0.8 µM): 0.597
relative viability (NCI-H838; first compound 2.53 µM): 0.398
relative viability (SW 900; first compound 0.253 µM): 0.844
relative viability (SW 900; first compound 0.8 µM): 0.832
relative viability (SW 900; first compound 2.53 µM): 0.421
relative viability (UMC-11; first compound 0.08 µM): 0.488
relative viability (UMC-11; first compound 0.253 µM): 0.327
relative viability (UMC-11; first compound 0.8 µM): 0.327
relative viability (UMC-11; first compound 2.53 µM): 0.274
